Test results reported in article PMC9367601 (Cancers, 2022).

The molecules below were run against Epidermal Growth Factor Receptor (EGFR) (Homo sapiens, UniProt P00533) (assay: PathHunter cell-based EGFR dimerization assay, dose-response). Details: not given.
Sequence of Epidermal Growth Factor Receptor (EGFR) (P00533 25-1210): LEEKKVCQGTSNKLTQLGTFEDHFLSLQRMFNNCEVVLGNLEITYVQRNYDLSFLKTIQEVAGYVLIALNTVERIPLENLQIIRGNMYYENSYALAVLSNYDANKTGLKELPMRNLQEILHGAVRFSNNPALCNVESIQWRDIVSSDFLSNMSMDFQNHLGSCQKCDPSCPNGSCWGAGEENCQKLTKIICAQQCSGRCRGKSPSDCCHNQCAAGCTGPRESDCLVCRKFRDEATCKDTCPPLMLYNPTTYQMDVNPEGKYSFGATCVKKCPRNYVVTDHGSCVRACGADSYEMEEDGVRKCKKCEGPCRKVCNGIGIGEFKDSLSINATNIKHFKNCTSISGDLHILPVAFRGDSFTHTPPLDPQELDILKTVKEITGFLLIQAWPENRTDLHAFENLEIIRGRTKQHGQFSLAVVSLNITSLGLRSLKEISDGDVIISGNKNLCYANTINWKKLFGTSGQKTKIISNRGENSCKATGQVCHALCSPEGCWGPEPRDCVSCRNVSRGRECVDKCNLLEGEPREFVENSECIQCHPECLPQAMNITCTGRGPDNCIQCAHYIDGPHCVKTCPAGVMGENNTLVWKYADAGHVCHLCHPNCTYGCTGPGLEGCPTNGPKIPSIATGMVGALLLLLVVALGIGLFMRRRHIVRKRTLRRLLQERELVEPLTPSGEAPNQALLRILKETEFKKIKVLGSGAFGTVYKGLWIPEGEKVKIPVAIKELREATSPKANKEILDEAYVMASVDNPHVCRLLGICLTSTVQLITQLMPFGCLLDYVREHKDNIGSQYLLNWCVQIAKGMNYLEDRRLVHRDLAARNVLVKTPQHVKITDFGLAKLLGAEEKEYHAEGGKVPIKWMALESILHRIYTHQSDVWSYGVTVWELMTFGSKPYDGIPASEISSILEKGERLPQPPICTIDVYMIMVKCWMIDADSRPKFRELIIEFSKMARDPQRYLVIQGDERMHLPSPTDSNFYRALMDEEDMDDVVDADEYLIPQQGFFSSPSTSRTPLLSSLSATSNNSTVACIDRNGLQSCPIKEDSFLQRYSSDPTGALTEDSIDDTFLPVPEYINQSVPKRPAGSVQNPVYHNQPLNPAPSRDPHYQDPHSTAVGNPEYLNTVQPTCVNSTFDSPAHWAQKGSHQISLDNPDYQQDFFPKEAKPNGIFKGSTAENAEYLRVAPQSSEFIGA

Row | IC50 | Compound
1 | 27.7 ± 4.5 µM | O=C1Nc2cc(Cl)c(F)cc2C1=Nc1cccc(C(F)(F)F)c1 [DSF-099]
2 | 38.8 ± 3.6 µM | O=C1Nc2ccc(Br)cc2C1=Nc1cccc(C(F)(F)F)c1 [DSF-097]

Each molecule was assayed against T1, Epidermal Growth Factor Receptor (EGFR), extracellular domain (EGFR-ECD) (Homo sapiens, UniProt P00533) (assay: SPR competition: dose-dependent decrease of EGF binding to immobilized EGFR-ECD (no SPR value printed); the IC50 is from the PathHunter cell EGFR dimerization assay). Details: not given.
T1 construct: full-length EGFR in DiscoverX PathHunter enzyme-complementation cells, EGF-stimulated
Assay type: cell-based

T1 sequence (P00533 25-1210): as above

Row | IC50 | Compound
3 | 13.2 ± 2.1 µM | O=C1Nc2ccc([N+](=O)[O-])cc2C1=Nc1cccc(C(F)(F)F)c1 [DSF-102]

Each molecule was assayed against T1, Epidermal Growth Factor Receptor (EGFR), extracellular domain (EGFR-ECD) (assay: cell-based). Details: not given.
Parameters: DiscoverX PathHunter EGFR dimerization/activation assay, chemiluminescence
Experimental: The inhibition of the EGFR dimerization assay was conducted using the PathHunter kit following the producer instructions and with cetuximab as a positive control. For IC50 determination, the selected compounds were tested at different concentration (range 0.1–100 µM) and the IC50 values were calculated by the four parameters logistic (4-PL) model. Evaluation was based on means from at least four independent experiments. The discovery of orally available small molecules able to impair the EGFR activation targeting the extracellular domain could be of great interest for cancer treatment. To pursue this goal, a suitable high/medium throughput screening method is required. In this respect, a commercially available kit (PathHunter® from DiscoverX©; San Francisco, CA, USA) for the screening of compounds able to prevent EGFR activation (either dimerization or autophosphorylation) has been developed in recent years. This assay measures the chemiluminescent signal produced as a consequence of ligand-induced dimerization/activation of EGFR [16]. Our interest in kinase inhibitors and the readily availability of such kit prompted us to start a campaign for the discovery of small molecules targeting the extracellular domain of EGFR.

Row | Compound | inhibition at 10 µM | inhibition at 50 µM
4 | O=[N+]([O-])c1cc(Cl)ccc1S(=O)(=O)Nc1cccc(Cl)c1 [DSF086] | 0% | 19 ± 4%
5 | CCOC(=O)c1ccc(NS(=O)(=O)c2ccc(Cl)cc2[N+](=O)[O-])cc1 [DSF087] | 2 ± 3% | 36 ± 4%
6 | CS(=O)(=O)Nc1ccc(NC(=O)c2ccc3c(c2)C(=O)c2c(NCCN4CCNCC4)ccc(NCCN4CCNCC4)c2C3=O)cc1 [DSF010] | 28 ± 3% | 34 ± 2%
7 | COc1cccc(Nc2ccc3cc(-c4cccs4)c(=O)oc3n2)c1 [DSF031] | 0% | 19 ± 1%
8 | COc1cccc(Nc2ncc(C(=O)O)c(O)n2)c1 [DSF058] | 12 ± 2% | 5 ± 5%
9 | CC(=O)Nc1ccc(O)c2c1C(=O)c1ccccc1C2=O [DSF008] | 0% | 14 ± 2%
10 | COc1ccc(OC)c(/N=C2/C(=O)Nc3ccc(Br)cc32)c1 [DSF070] | 20 ± 5% | 41 ± 1%
11 | O=C(CCN1CCOCC1)Nc1ccc(NC(=O)CCN2CCOCC2)c2c1C(=O)c1ccccc1C2=O [DSF021] | 16 ± 4% | 30 ± 5%
12 | O=C(CN1CCCCC1)Nc1ccc(NC(=O)CN2CCCCC2)c2c1C(=O)c1ccccc1C2=O [DSF017] | 9 ± 2% | 14 ± 1%
13 | CCOC(=O)c1cc2cnc(O)nc2oc1=O [DSF040] | 0% | 0%
14 | O=C(O)c1ccc(NS(=O)(=O)c2ccc(Cl)cc2[N+](=O)[O-])cc1O [DSF085] | 0% | 36 ± 5%
15 | N#CCc1c2ccccc2c(CC#N)c2ccccc12 [DSF004] | 0% | 1 ± 1%

The remaining lines, values ahead:

Row | inhibition at 10 µM | inhibition at 50 µM | Compound
16 | 0% | 0% | COCCOc1ccc2c(C)c(CC(=O)Nc3ccc(C(=O)O)cc3)c(=O)oc2c1 [DSF046]
17 | 0% | 0% | COc1cccc(Nc2nc(O)c3cc(-c4ccccc4)c(=O)oc3n2)c1 [DSF036]
18 | 11 ± 5% | 28 ± 3% | CC(=O)Nc1ccc(C=C2N=C(c3ccc([N+](=O)[O-])cc3O)OC2=O)cc1 [DSF080]
19 | 0% | 0% | COc1ccc2c(C)c(CC(=O)Nc3ccc(C(=O)O)cc3)c(=O)oc2c1 [DSF043]
20 | 3 ± 1% | 41 ± 2% | COc1ccc([N+](=O)[O-])c(C2=NC(=Cc3ccc(NC(C)=O)cc3)C(=O)O2)c1 [DSF079]
21 | 0% | 4 ± 4% | Nc1cccc(-c2cc(-c3ccccc3)ncn2)c1 [DSF022]
22 | 17 ± 2% | 44 ± 5% | O=C(Nc1ccc(Nc2cc(-c3ccccc3)ncn2)cc1)Nc1ccc(C(=O)O)cc1 [DSF057]
23 | 9 ± 3% | 21 ± 2% | O=C(NC(=S)Nc1cccc(Oc2ncc(Cl)cn2)c1)c1ccccc1 [DSF062]
24 | 0% | 22 ± 5% | Cc1ccc(NC(=O)Nc2ccc(Nc3cc(-c4ccccc4)ncn3)cc2)cc1 [DSF056]
25 | 0% | 0% | FC(F)(F)c1cccc(-c2cc(-c3ccccc3)ncn2)c1 [DSF026]
26 | 9 ± 3% | 3 ± 4% | COCCOc1ccc2c(C)c(CCC(=O)Nc3ccc(C(=O)O)cc3)c(=O)oc2c1 [DSF048]
27 | 0% | 0% | CC(=O)Nc1ccc(/C=C2/N=C(c3cccc(C(=O)O)c3)OC2=O)cc1 [DSF071]
28 | 0% | 0% | O=C(NCc1ccccc1)c1ccc(-c2ccc(-c3ccccc3)cc2O)cc1 [DSF030]

Same assay, conditions: inhibitor; % inhibition @ 10 uM, 10 µM

Row | % inhibition @ 10 uM | Compound
29 | 16 ± 1% | Cc1cccc(C)c1NS(=O)(=O)c1ccc(CC(=O)O)cc1 [DSF082]

Same assay, conditions: inhibitor; % inhibition @ 50 uM, 50 µM

Row | % inhibition @ 50 uM | Compound
30 | 19 ± 5% | Cc1cccc(C)c1NS(=O)(=O)c1ccc(CC(=O)O)cc1 [DSF082]
